# Where “and” joins values, the source holds several entries; their conditions need not be identical. Identical values can stand only once. Like-named read-outs stand apart in the source and are kept apart here. Marks after values point to notes of the source that are not given here.
# What was measured:
# anti-Pn14 antibodies = tested on: anti-Pn14 antibodies; parameters: species or system BALB/c female mice; details: mouse, in vivo
# CD34+ cells = assay: Blood cell stimulation: CD34+ progenitor suspension culture, lineage marker ELISA; type: cell-based, human; details: for neutrophils, Percent difference (relative to control): CD15; for red blood cells, Percent difference (relative to control): glycophorin A
# [1] = tested on: CHO cells containing a cloned gene for tissue plasminogen activator (tPA); assay: Stimulation of tPA production from CHO cells (IMUBIND total tPA ELISA); type: cell-based; details: for Culture Cell Density / Supernatant Concentration (tPA) / Supernatant Concentration relative to control / tPA per cell / tPA per cell relative to control / ELISA Optical Density: 1 pg/ml; for Culture Cell Density: cell numbers per milliliter, trypan-blue, hemacytometer; for Supernatant Concentration (tPA): from standard curve; for ELISA Optical Density: supernatant at end of log phase
# [2] = tested on: delayed type hypersensitivity (DTH); type: in vivo, mice
# [3] = tested on: Hybridoma cells (ATCC #CRL-8014, OKT-8); assay: Production of monoclonal antibodies from hybridomas (sandwich ELISA); type: cell-based; details: 200 pg/ml
# [4] = Study 1: 1 ng/ml compound, 2000 cells per well, 10 days, CD14
# [5] = Study 1: 1 ng/ml compound, 2000 cells per well, 10 days
# [6] = Study 2: 1 ug/ml, 1700 cells per well
compound,measurement,setting,value
"O=C(CCNC(=O)OCc1ccccc1)NCCOP(=O)(O)O [Taurox-BOP, N-carboxybenzoxy-β-alanyl-ethanolamine phosphate]","Mean Change in O.D. from pretest, Day 4 after injection with antigen",anti-Pn14 antibodies,0
same,"Mean Change in O.D. from pretest, Day 14 after injection with antigen",anti-Pn14 antibodies,366
same,"Mean Change in O.D. from pretest, Day 14 after injection with antigen",anti-Pn14 antibodies; ip,877 and 515
same,"monocytes, Percent difference (relative to control)",CD34+ cells; [4],18%
same,"neutrophils, Percent difference (relative to control)",CD34+ cells; [5],21%
same,"red blood cells, Percent difference (relative to control)",CD34+ cells; [5],0%
same,"CD34 cells, Percent difference (relative to control)",CD34+ cells; [6],33%
same,"RBC, Percent difference (relative to control)",CD34+ cells; [6],55%
same,"monocytes, Percent difference (relative to control)",CD34+ cells; [6],9%
"NCCC(=O)NCCS(=O)(=O)O [Taurox-S, β-alanyl-taurine]","Mean Change in O.D. from pre-boost, 10 days after boost with UNCONJUGATED polysaccharide",anti-Pn14 antibodies,204
same,"Mean Change in O.D. from pretest, Day 4 after injection with antigen",anti-Pn14 antibodies,2.9
same,"Mean Change in O.D. from pretest, Day 14 after injection with antigen",anti-Pn14 antibodies,697
same,"Mean Change in O.D. from pretest, Day 14 after injection with antigen",anti-Pn14 antibodies; ip,681 and 671
same,"monocytes, Percent difference (relative to control)",CD34+ cells; [4],47%
same,"neutrophils, Percent difference (relative to control)",CD34+ cells; [5],55%
same,"red blood cells, Percent difference (relative to control)",CD34+ cells; [5],50%
"O=C(CCNC(=O)OCc1ccccc1)NCCS(=O)(=O)O [Taurox-SB, N-carboxybenzoxy-β-alanyl-taurine]",Culture Cell Density,[1]; listed as #1,4.0 × 10^5
same,Culture Cell Density,[1]; listed as #2,4.8 × 10^5
same,Culture Cell Density,[1]; listed as #3,5.2 × 10^5
same,Supernatant Concentration (tPA),[1]; listed as #1,"1,492.8 nanograms/ml"
same,Supernatant Concentration (tPA),[1]; listed as #2,"1,389.4 nanograms/ml"
same,Supernatant Concentration (tPA),[1]; listed as #3,"2,113.0 nanograms/ml"
same,Supernatant Concentration relative to control,[1]; listed as #1,[3.5 × control]
same,tPA per cell,[1]; listed as #1,3.73 Picograrns
same,tPA per cell relative to control,[1]; listed as #1,[1.9 × control]
same,Supernatant Concentration relative to control,[1]; listed as #2,[3.3 × control]
same,tPA per cell,[1]; listed as #2,2.89 Picograrns
same,Supernatant Concentration relative to control,[1]; listed as #3,[5.0 × control]
same,tPA per cell,[1]; listed as #3,4.06 Picograrns
same,tPA per cell relative to control,[1]; listed as #3,[2.1 × control]
same,ELISA Optical Density,[1]; listed as #1,0.332
same,ELISA Optical Density,[1]; listed as #2,0.317
same,ELISA Optical Density,[1]; listed as #3,0.422
same,alteration of per-cell production of tPA,[1]; Table 2,about 2 fold
same,moderate responders compared with saline injected group,[2]; 24 hrs,more moderate responders than the saline injected group
same,Percent of Animals with Major DTH at 24 hrs,"[2]; mouse, in vivo",50* Percent
same,Percent of Animals with Major DTH at 48 hrs.,"[2]; mouse, in vivo",50%
same,Percent of Animals with Major DTH at either 24 or 48 hrs.,"[2]; mouse, in vivo",60%
same,Percent of Animals with Moderate DTH at 24 hrs,"[2]; mouse, in vivo",70%
same,moderate response rate at 24 hrs,"[2]; mouse, in vivo",eight of ten
same,total treated animals with major immune response at 24 hours,"[2]; mouse, in vivo",14 animals
same,treated animals with major response at either 24 or 48 hours post challenge,"[2]; mouse, in vivo",21 animals
same,Percent of Animals with Major DTH at 24 hrs,"[2]; mouse, in vivo, iv",20% and 10%
same,Percent of Animals with Major DTH at 48 hrs.,"[2]; mouse, in vivo, iv",20% and 10%
same,Percent of Animals with Moderate DTH at 24 hrs,"[2]; mouse, in vivo, iv",70% and 60% and 50% and 80* Percent and 40%
same,"Mean Change in O.D. from pre-boost, 10 days after boost with UNCONJUGATED polysaccharide",anti-Pn14 antibodies,139
same,"Mean Change in O.D. from pretest, Day 4 after injection with antigen",anti-Pn14 antibodies,1.1
same,"Mean Change in O.D. from pretest, Day 14 after injection with antigen",anti-Pn14 antibodies,697
same,"Mean Change in O.D. from pretest, Day 4 after injection with antigen",anti-Pn14 antibodies; ip,6.2 and 3.9
same,"Mean Change in O.D. from pretest, Day 14 after injection with antigen",anti-Pn14 antibodies; ip,705 and 483
same,"Increase of 1 gG, μg/ml over 0-control",[3],316%
same,"Increase of IgG, pg/cell over 0-control",[3],93%
same,"IgG, pg/cell",[3]; protein-free media,80.6 pg/cell
same,1 gG,"[3]; protein-free media, Mab in culture aliquots",50 µg/mL
same,"monocytes, Percent difference (relative to control)",CD34+ cells; [4],15%
same,"neutrophils, Percent difference (relative to control)",CD34+ cells; [5],0%
same,"red blood cells, Percent difference (relative to control)",CD34+ cells; [5],0%
N-carboxybenzoxy-β-alanyl aminoethylphosphonic acid [Taurox-BP],"Mean Change in O.D. from pre-boost, 10 days after boost with UNCONJUGATED polysaccharide",anti-Pn14 antibodies,187
same,"Mean Change in O.D. from pretest, Day 4 after injection with antigen",anti-Pn14 antibodies,3.3
same,"Mean Change in O.D. from pretest, Day 14 after injection with antigen",anti-Pn14 antibodies,924
same,"monocytes, Percent difference (relative to control)",CD34+ cells; [4],18%
same,"neutrophils, Percent difference (relative to control)",CD34+ cells; [5],14%
same,"red blood cells, Percent difference (relative to control)",CD34+ cells; [5],1%
same,"CD34 cells, Percent difference (relative to control)",CD34+ cells; [6],0%
same,"RBC, Percent difference (relative to control)",CD34+ cells; [6],4%
same,"monocytes, Percent difference (relative to control)",CD34+ cells; [6],2%

# Reference: US6498150B2, “Low molecular weight cell, bone marrow and immune stimulants” (priority 1995, dated 2002)
